Test results as given in patent US20120255051A1, “HERBICIDE TOLERANT PLANTS” (priority 2009, published 2012).

System: Brassica plants comprising mutant AHAS alleles
Test: Greenhouse post-emergence spraying (10 g a.i./ha): vigor scores
Type: in vivo, Brassica napus
Settings: for vigor score Av, post-emergence (1, 2 and 3 weeks after treatment): 10 g a.i./ha
Protocol: In another experiment, the effect of combining AHAS full knockouts with AHAS missense herbicide tolerant alleles on tolerance to thiencarbazone-methyl pre-planting application and thiencarbazone-methyl post-emergence spraying was tested in the greenhouse. To this end, the Brassica plants identified in Example 1 and 2 were backcrossed two times with an elite parent line, and subsequently selfed twice to obtain homozygous plants (BC2S2). Treatment pre-planting was carried out on the soil just after sowing with a dose of 20 g a.i./ha of thiencarbazone methyl. For assessment of vigor scores, plants were evaluated on a scale of 1 to 9, where 1=dead, 3=poor, 6=some aberrant phenotype and 9=vigorous. The vigor scores are an average of the scores taken at 2, 3 and 4 weeks after treatment. Treatment post-emergence at the first leaf stage was carried out with a dose of 10 g a.i./ha of thiencarbazone-methyl. The vigor scores are an average of the scores taken 1, 2 and 3 weeks after the treatment. The average values (Av) and standard deviations (SD) of the vigor scores are represented in Table 6.

COC(=O)c1csc(C)c1S(=O)(=O)NC(=O)n1nc(OC)n(C)c1=O [thiencarbazone-methyl, methyl 4-[(4,5-dihydro-3-methoxy-4-methyl-5-oxo-1H-1,2,4-triazol-1-yl)carbonylsulfamoyl]-5-methylthiophene-3-carboxylate]
vigor score Av, post-emergence (1, 2 and 3 weeks after treatment) (AHAS1 +/+, AHAS3 +/+ (HETO108+HETO104 series)): 1.7
vigor score Av, post-emergence (1, 2 and 3 weeks after treatment) (AHAS1 +/+, AHAS3 +/+ (HETO108+HETO111 series)): 1.7
vigor score Av, post-emergence (1, 2 and 3 weeks after treatment) (AHAS1 +/+, AHAS3 +/+ (HETO112+HETO111 series)): 1.7
vigor score Av, post-emergence (1, 2 and 3 weeks after treatment) (AHAS1 +/+, AHAS3 HETO104/HETO104): 1.8
vigor score Av, post-emergence (1, 2 and 3 weeks after treatment) (AHAS1 +/+, AHAS3 HETO111/HETO111 (HETO108+HETO111 series)): 3.3
vigor score Av, post-emergence (1, 2 and 3 weeks after treatment) (AHAS1 +/+, AHAS3 HETO111/HETO111 (HETO112+HETO111 series)): 3.1
vigor score Av, post-emergence (1, 2 and 3 weeks after treatment) (AHAS1 HETO108/HETO108, AHAS3 +/+ (HETO108+HETO104 series)): 3.4
vigor score Av, post-emergence (1, 2 and 3 weeks after treatment) (AHAS1 HETO108/HETO108, AHAS3 +/+ (HETO108+HETO111 series)): 3.3
vigor score Av, post-emergence (1, 2 and 3 weeks after treatment) (AHAS1 HETO108/HETO108, AHAS3 HETO104/HETO104): 3.8
vigor score Av, post-emergence (1, 2 and 3 weeks after treatment) (AHAS1 HETO108/HETO108, AHAS3 HETO111/HETO111): 4.7
vigor score Av, post-emergence (1, 2 and 3 weeks after treatment) (AHAS1 HETO112/HETO112, AHAS3 +/+): 1.7
vigor score Av, post-emergence (1, 2 and 3 weeks after treatment) (AHAS1 HETO112/HETO112, AHAS3 HETO111/HETO111): 3.6
vigor score Av, post-emergence (1, 2 and 3 weeks after treatment) (Elite parent line treated): 1.8
thiencarbazone-methyl tolerance of plants homozygous for a missense allele and a full knock-out allele, versus missense allele with other AHAS gene homozygous wild-type (post-emergence spraying, greenhouse): higher
